Laboratory results from patent US20130189773A1, “PRODUCTION OF HYPOTHIOCYANITE FROM HALOGENATED CELLS” (priority 2012, published 2013).

Experiments:
[1] = target: T1, GSH reductase (GOR) (Homo sapiens, UniProt P00390); test: inhibition of GSH reductase (GOR) by HOCl and repair by SCN^− (GOR-catalyzed reduction of GSSG by NADPH, kinetic traces at 340 nm); assay type: biochemical
T1 sequence (P00390 45-522 limits assumed): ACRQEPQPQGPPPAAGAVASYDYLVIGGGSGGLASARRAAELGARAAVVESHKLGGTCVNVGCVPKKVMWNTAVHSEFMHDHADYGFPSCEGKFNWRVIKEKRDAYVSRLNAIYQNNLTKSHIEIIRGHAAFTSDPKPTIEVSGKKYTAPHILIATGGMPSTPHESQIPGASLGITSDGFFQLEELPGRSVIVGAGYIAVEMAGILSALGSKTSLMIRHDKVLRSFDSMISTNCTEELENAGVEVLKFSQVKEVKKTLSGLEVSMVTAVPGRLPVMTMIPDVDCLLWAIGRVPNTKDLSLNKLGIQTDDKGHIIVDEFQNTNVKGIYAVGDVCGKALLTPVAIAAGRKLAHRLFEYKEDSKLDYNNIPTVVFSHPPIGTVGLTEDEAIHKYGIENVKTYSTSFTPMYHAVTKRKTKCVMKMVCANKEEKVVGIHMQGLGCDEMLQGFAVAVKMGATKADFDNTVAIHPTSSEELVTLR
Method: FIG. 2 contains kinetic traces at 340 nm depicting the GOR-catalyzed reduction of GSSG by NADPH. Conditions: (Control) [GSSG]o=1 mM, [NADPH]o=0.1 mM, [GOR]=0.025 U/mL, [iP]=0.1 M, pH 7.4 and T=25° C.; (SCN^- treated) GOR incubated with 40 μM HOCl for 20 minutes and then treated with 160 μM SCN^- for another 20 minutes. (HOCl modified) GOR incubated with 40 μM HOCl for 20 minutes and then treated with iP for an additional 20 minutes. […] Glutathione (GSH) is a major non-protein thiol in cells (up to mM concentrations have been reported in some cells). One of the cellular functions of GSH is to serve as an antioxidant, and thus GSH is essential for cell survival, especially during conditions of oxidative stress. Many of the important residues in the active site of GOR, including two cysteines ([…]) and tyrosine ([…]), are susceptible to HOCl attack. Oxidation of these residues results in the inhibition of enzyme activity.

[2] = system: A549 cells; test: fluorescent probe detection of HOCl-produced intracellular chloramines in A549 cells; assay type: cell-based, human
Method: In each experiment, A549 cells were incubated with 50 μM HOCl in RPMI culture medium for 20 min at 37° C. and washed with the medium to remove residual HOCl; the cells were then incubated for an additional 20 minutes at 37° C. with 50 μM SCN^− and washed again with the medium. FIG. 3D illustrates the structure of the rhodamine-hydroxymic acid-based probe utilized in FIGS. 3A-C.

[3] = system: A549 cells; test: flow cytometry of percent live, necrotic and apoptotic A549 cells; assay type: cell-based, human
Method: A549 cells were untreated (A), treated with 50 μM HOCl (B), treated with 50 μM SCN^− followed by treatment with 50 μM HOCl, (C), or treated with 50 μM HOCl followed by treatment 30 minutes later with 50 μM SCN^− (D).
Using the same protocol that was used to investigate the reaction of intracellular chloramines with SCN^− (FIG. 3), flow cytometry was employed to investigate the percent of live, necrotic, and apoptotic cells (FIG. 4).

Row | SMILES | enzyme activity recovered ([1]; HOCl-modified GOR (40 μM HOCl, 20 minutes) subsequently treated with 160 μM SCN^− for 20 minutes) | fluorescence with probe compound (1) (intracellular chloramines) ([2]; A549 cells treated with 50 μM HOCl and subsequently with 50 μM SCN^− 20 minutes (FIG. 3C)) | fluorescence with probe compound (1) (intracellular chloramines) ([2]; A549 cells treated with HOCl in the presence of SCN^− (data not shown)) | recovery of HOCl-damaged cells ([3]; 50 μM SCN^− added within 30 minutes after 50 μM HOCl (FIG. 4D)) | protection of cells from HOCl ([3]; 50 μM SCN^− present before 50 μM HOCl was added (FIG. 4C)) | recovery of HOCl-damaged cells ([3]; interval for addition of SCN^− after HOCl 1 hour or more (data not shown)) | loss of enzyme activity ([1]; GOR ~1.3 nM treated with 40 μM HOCl for 20 minutes, loss within 13 minutes, pH 7.4, 25° C.) | fluorescence with probe compound (1) (intracellular chloramines) ([2]; A549 cells treated with 50 μM HOCl 20 min 37° C., then probe (FIG. 3B)) | cell killing ([3]; 50 μM HOCl (FIG. 4B)) | apoptotic cells ([3]; under the conditions of these experiments (50 μM HOCl with or without 50 μM SCN^−))
1 | N#CS [SCN^−, thiocyanate] | ~89% | do not fluoresce | did not fluoresce | the cells were resuscitated | efficient scavenger of HOCl | recovery was not observed | – | – | – | –
2 | OCl [HOCl, hypochlorous acid, reference compound] | – | – | – | – | – | – | ~82% | fluoresced | kill roughly half of the cells | essentially no apoptotic cells were observed
